Data on 7 molecules can be found in US20030176381A1, “Hyaluronic acid in the treatment of cancer” (priority 2002, published 2003).

For data set [1], the system named is LNCaP human prostate cancer cells. In words: MTT cell proliferation, LNCaP. The class given is cell-based. Particulars: 48 h. How it is done: (§1) Cell proliferation was measured using dimethylthiazoldiphenyltetrazolium (MTT) reduction (Mosman et al. J. Immunol. Methods 65:55, 1983). Unless otherwise stated, 100 Al of 5 mg of MTT (Sigma-Aldrich, St. Louis, Mo., USA) dissolved in 1 ml of PBS was added into each well. After 4 h, medium was removed from each well, 1.0 ml of acid-isopropanol (0.04 N HCI in isopropanol) was added and reduced MTT was solubilized by mixing. Absorbency of the reaction product was measured at a wavelength of 570 nm using a multiplate spectrophotometer reader (Elx800 Model, Bio-TEK Instruments Inc., Winooski, Vt., USA).
(§2) Unless stated otherwise 1.0 x 10^5 cells/ml were seeded in 6-well flat-bottom tissue culture plates and were maintained for 48 h at 370 C in a 5% CO2 atmosphere.
(§3) PC-3, LNCAP and Du-145 human prostate cancer cells; MCF-7 human breast cancer cells; HT-1080 human fibrosarcoma cancer cells; B16F1 murine melanoma cells; and, UMUC-3, RT-4, HT-1376 and T-24 human bladder cancer cells were incubated with 0.8, 8.0 and 80 μg/ml of 5.0-7.5 x 10^5 Da HA (Table 2).
(§4) PC-3. LNCaP and Du-145 human prostate cancer cells were incubated with 8.0 jg/ml of 5.0-7.5 x 105 Da HA or of <1.5 x 10^4 Da HA (Table 3).
(§5) CD44 expression and the inhibition of proliferation by 5.0-7.5 x 10^5 Da HA were measured using Jurkat T cell leukemia cells; MCF-7 human breast cancer cells; RT-4, T-24, HT-1376 and UMUC-3 human bladder cancer cells; and, PC-3, Du-145 and LNCaP prostate cancer cells (Table 8)

In data set [2] the test system is Du-145 human prostate cancer cells. Nature of the data set: MTT cell proliferation, Du-145. The format is cell-based. Particulars: HA 8.0 μg/ml, 48 h. The protocol:
as §1, §2, §3, §4
(§6) Unless stated otherwise 2.0 x 10^4 cells/ml were seeded in 24-well plates and were maintained for 48 h at 370 C in a 5% CO2 atmosphere. MTT was used at 50 μl per well.
(§7) T-24 human bladder cancer cells, PC-3 and Du-145 human prostate cancer cells, and MCF-7 human breast cancer cell were incubated with saline or with 80.0 jg/ml of 5.0-7.5 x 105 Da HA +1.0 μg/ml of M-DNA (Table 4).
as §5

The subject of data set [3] is PC-3 human prostate cancer cells. In words: MTT cell proliferation, PC-3. The format is cell-based. Particulars: 48 h. The protocol:
as §1, §2, §3, §4, §6, §7, §5

Data set [4] has as its target CD44 cell surface HA receptor (human) (UniProt P16070). Nature of the data set: flow cytometry, FITC-CD44 on Du-145 human prostate cancer cells (unstained cells: 3).
UniProt P16070, sequence (P16070 21-742): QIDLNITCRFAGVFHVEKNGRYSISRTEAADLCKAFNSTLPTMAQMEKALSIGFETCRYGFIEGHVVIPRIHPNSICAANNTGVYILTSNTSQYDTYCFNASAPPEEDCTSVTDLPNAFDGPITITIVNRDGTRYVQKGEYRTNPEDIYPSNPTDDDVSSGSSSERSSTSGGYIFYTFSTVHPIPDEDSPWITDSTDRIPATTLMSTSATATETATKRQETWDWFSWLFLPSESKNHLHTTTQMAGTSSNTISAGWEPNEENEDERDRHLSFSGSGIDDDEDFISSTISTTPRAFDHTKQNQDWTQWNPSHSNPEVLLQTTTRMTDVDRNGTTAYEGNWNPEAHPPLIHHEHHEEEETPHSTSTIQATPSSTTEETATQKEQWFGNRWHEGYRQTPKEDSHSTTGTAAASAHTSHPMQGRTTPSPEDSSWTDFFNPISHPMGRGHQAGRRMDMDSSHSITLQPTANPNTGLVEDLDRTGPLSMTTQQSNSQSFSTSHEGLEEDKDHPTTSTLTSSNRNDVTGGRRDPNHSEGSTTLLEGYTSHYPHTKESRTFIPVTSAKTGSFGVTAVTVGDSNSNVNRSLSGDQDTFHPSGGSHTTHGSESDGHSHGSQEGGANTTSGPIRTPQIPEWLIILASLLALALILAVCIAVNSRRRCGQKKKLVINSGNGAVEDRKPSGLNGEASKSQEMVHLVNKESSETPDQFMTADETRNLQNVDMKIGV
The target is the same in data set [5]. Nature of the data set: flow cytometry, FITC-CD44 on T-24 human bladder cancer cells (unstained cells: 3).
Data set [6] shares this target. In words: flow cytometry, FITC-CD44 on HT-1376 human bladder cancer cells (unstained cells: 4).
The target is the same in data set [7]. Nature of the data set: flow cytometry, FITC-CD44 on RT-4 human bladder cancer cells (unstained cells: 4).
Data set [8] shares this target. In words: flow cytometry, FITC-CD44 on MCF-7 human breast cancer cells (unstained cells: 3).
The target is the same in data set [9]. In words: flow cytometry, FITC-CD44 on UMUC-3 human bladder cancer cells (unstained cells: 3).
Data set [10] has the same target. Nature of the data set: flow cytometry, FITC-CD44 on PC-3 human prostate cancer cells (unstained cells: 6).
The subject of data set [11] is PC3 tumors. Nature of the data set: Example 11: HA, M-DNA, MCC on PC3 tumors in mice. The format is in vivo, male nude BALB/c mice. Particulars: vs Group 1 (saline); intravenously day 0 and at 3-day intervals for 4 weeks; HA 0.16-16.0 mg/kg, M-DNA or MCC 0.02-2.0 mg/kg. The protocol: PC-3 human prostate cancer cells are implanted subcutaneously into 224 male nude BALB/c mice. The mice are divided into 28 groups of 8 mice (Table 11).
(§8) Saline, HA, M-DNA, MCC, HA+M-DNA and HA+MCC are administered intravenously on day 0 and at 3-day intervals for 4 weeks (10 injections) at which time the mice are sacrificed and tumor mass and number of metastases are determined.

Data set [12] has as its system rectal, gastric, breast, prostate and endometrial cancers. Particulars: HA >750 mg/kg administered with various other therapeutic agents over various periods of time; cited from earlier work.
The test system of data set [13] is B16F10 murine melanoma tumor. Particulars: HA 1 mg/ml over 7 days by Alzet osmotic pump into the immediate vicinity of the tumor; cited from earlier work.
The subject of a further data set is colon-26 cancer cells. Particulars: HA alone; colon-26 cells express high levels of HA receptors; cited from earlier work.
Data set [14] deals with LNCaP tumors (CD44 null). Nature of the data set: Example 15: HA, CIS, 5-FU on LNCaP tumors in mice. The format is in vivo, male nude BALB/c mice. Particulars: vs Group 1 (saline); intravenously day 0 and at 3 day intervals for 4 weeks; HA 0.16-16.0 mg/kg, CIS or 5-FU 0.1-10.0 mg/kg. How it is done:
Effect of saline, HA, CIS, 5-FU, HA+CIS andHA+5-FU on LNCaP tumors in mice LNCaP cancer cells (CD44 null) are implanted subcutaneously into 224 male nude BALB/c mice. The mice are divided into 28 groups of 8 mice (Tablel5).
Saline, HA, CIS, 5-FU, HA+CIS and HA+5FU are administered intravenously in saline on day 0 and at 3 day intervals-for 4 weeks-(1IOinjections) at which time the mice are sacrificed and tumor mass and number of metastasis are determined.

Data set [15] concerns PC3 tumors. In words: Example 14: HA, CIS, 5-FU on PC3 tumors in mice. The format is in vivo, male nude BALB/c mice. Particulars: vs Group 1 (saline); intravenously day 0 and at 3 day intervals for 4 weeks; HA 0.16-16.0 mg/kg, CIS or 5-FU 0.1-10.0 mg/kg. How it is done: PC-3 cancer cells are implanted subcutaneously into 224 male nude BALB/c mice. The mice are divided into 28 groups of 8 mice (Table 14).
(§9) Saline, HA, CIS, 5-FU, HA+CIS and HA+5FU are administered intravenously in saline on day 0 and at 3 day intervals for 4 weeks (10 injections) at which time the mice are sacrificed and tumor mass and number of metastases are determined.

Data set [16] deals with B16F1 tumors. In words: Example 16: HA, CIS, 5-FU on B16F1 tumors in mice. The format is in vivo, female C57BL/6 mice. Particulars: vs Group 1 (saline); intravenously day 0 and at 3 day intervals for 4 weeks; HA 0.16-16.0 mg/kg, CIS 0.01-1.0 mg/kg or 5-FU 1.0-100.0 mg/kg. The protocol: Effect of saline, HA, CIS, 5-FU, HA+CIS and HA+5-FU on B16F1 tumors in mice 5 B16F1 cancer cells are implanted subcutaneously into 224 female C57BL/6 mice. The mice are divided into 28 groups of 8 mice (Table 16).
as §9

Data set [17] has as its system LNCaP tumors (CD44 null). Nature of the data set: Example 12: HA, M-DNA, MCC on LNCaP tumors in mice. The format is in vivo, male nude BALB/c mice. Particulars: vs Group 1 (saline); intravenously day 0 and at 3-day intervals for 4 weeks; HA 0.16-16.0 mg/kg, M-DNA or MCC 0.02-2.0 mg/kg. How it is done: Effect of saline, HA, M-DNA, MCC, HA+M-DNA and HA +MCC on LNCaP tumors in mice LNCaP human prostate cancer cells (CD44 null) are implanted subcutaneously into 224 male nude BALB/c mice. The mice are divided into 28 groups of 8 mice (Table 12).
as §8

In data set [18] the test system is B16F1 tumors. Nature of the data set: Example 13: HA, M-DNA, MCC on B16F1 tumors in mice. The format is in vivo, female C57BL/6 mice. Particulars: vs Group 1 (saline); intratumorally day 0 and at 3 day intervals for 4 weeks; HA 0.16-16.0 mg/kg, M-DNA or MCC 0.02-2.0 mg/kg. The protocol: Example 13 Effect of saline, HA, M-DNA, MCC, HA+M-DNA and HA +MCC on B16F1 tumors in mice B16F I cancer cells are implanted […] into 224 female C57BL/6 mice. The mice are divided into 28 groups of 8 mice (Table 13).
Saline, HA, M-DNA, MCC, HA+M-DNA and HA+MCC are administered intratumorally in saline on day 0 and at 3 day intervals for 4 weeks (10 injections) at which time the mice are sacrificed and tumor mass and number of metastases are determined.

In data set [19] the test system is MCF-7 human breast cancer cells. In words: MTT cell proliferation, MCF-7. The class given is cell-based. Particulars: MCF-7 (2.5 X 10^5 cells/ml); oligonucleotide 100 μg/ml alone (HA 0.0 μg/ml).
The test system of data set [20] is RT-4 human bladder cancer cells. In words: MTT cell proliferation, RT-4. The format is cell-based. How it is done: Cell proliferation was measured using dimethylthiazoldiphenyltetrazolium (MTT) reduction (Mosman et al. J. Immunol. Methods 65:55, 1983). Unless otherwise stated, 100 Al of 5 mg of MTT (Sigma-Aldrich, St. Louis, Mo., USA) dissolved in 1 ml of PBS was added into each well. After 4 h, medium was removed from each well, 1.0 ml of acid-isopropanol (0.04 N HCI in isopropanol) was added and reduced MTT was solubilized by mixing. Absorbency of the reaction product was measured at a wavelength of 570 nm using a multiplate spectrophotometer reader (Elx800 Model, Bio-TEK Instruments Inc., Winooski, Vt., USA). […] PC-3, LNCAP and Du-145 human prostate cancer cells; MCF-7 human breast cancer cells; HT-1080 human fibrosarcoma cancer cells; B16F1 murine melanoma cells; and, UMUC-3, RT-4, HT-1376 and T-24 human bladder cancer cells were incubated with 0.8, 8.0 and 80 μg/ml of 5.0-7.5 x 10^5 Da HA (Table 2). […] MTT was used at 50 μl per well. HT-1376, RT-4 and T-24 human bladder cancer cells were incubated with 0.8 pg/ml of 5.0-7.5 x 10^5 Da HA +1.0 ug/ml of MCC (Table 5). […] MCF-7 human breast cancer cells; RT-4, T-24, HT-1376 and UMUC-3 human bladder cancer cells; and, PC-3, Du-145 and LNCaP prostate cancer cells (Table 8)

For data set [21], the system named is MCF-7 human breast cancer cells. Nature of the data set: MTT cell proliferation, MCF-7. The class given is cell-based. Particulars: Homo sapiens, MCF7, 5-FU at 10 μg/ml alone (saline instead of HA). How it is done: as §1, §2, §3, §6, §7
MTT was used at 50 µl per well.
Example 8 s HA potentiation of the anti-neoplastic effect ofchemotherapeutic drugs RT-4 human bladder cancer cells and MCF-7 human breast cancer cells were incubated as in Example 6 with 0.0, 0.008 or 0.08 pg/ml of 5.0-7.5 x 10^5 Da HA +0.1 jg/ml of CIS, +1.0 jg/ml of 5-FU or +10 jig/ml of 5-FU (Table 7).
as §5

Take Hyaluronic acid [<1.5 × 10^4 Da HA]: the “% INHIBITION of cell proliferation” value in [1] (HA 8.0 μg/ml) is reported as 24%; in data set [2] it was 37%; in data set [3] (HA 8.0 μg/ml), 5%.

“fluorescent anti-HA receptor monoclonal antibody FITC-CD44 (clone G44-26 (C26), Pharmingen)”: the mean fluorescent units (mean fluorescent units) worked out at 450 in [4]; 1800 in [5]; 200 in [6]; 60 in data set [7]; 70 in data set [8]; 1800 in data set [9]. In [10], this molecule yielded a mean fluorescent units (mean fluorescent units) of 400.

In the case of Hyaluronic acid [HA], the number of metastases entry with PC3 tumors [11], in the data set with PC3 tumors [15], with B16F1 tumors [16], in the data set on LNCaP tumors (CD44 null) [17] and in the data set on B16F1 tumors [18] was “fewer metastases” each time. In addition, the tumor mass result in the data set on PC3 tumors [11], with LNCaP tumors (CD44 null) [14], in the data set with PC3 tumors [15], in the data set with B16F1 tumors [16], in the data set with LNCaP tumors (CD44 null) [17] and in the data set on B16F1 tumors [18] was “less tumor mass” in each case. The entries for the “% INHIBITION of cell proliferation” value in [1] (HA 80.0 μg/ml) and in [3] (HA 80.0 μg/ml) were 26% and 30%, respectively. Also, the effect on cancers result in data set [12] is “reduced or eliminated”. Moreover, in [13], the reduced tumor volume is reported as above 85%. For the same molecule, the “growth of cancer cells” value in the data set on colon-26 cancer cells is “significantly inhibits the growth”. Also, the number of metastasis result in the data set with LNCaP tumors (CD44 null) [14] is “fewer metastases”.

Regarding “GG(GT)1GG: synthetic 6 base oligonucleotide”, in [19], the “% INHIBITION of cell proliferation” value was 20%.

Regarding `N.N.[Cl][Pt][Cl]` [CIS, cisplatin], the number of metastasis result in the data set on LNCaP tumors (CD44 null) [14] is listed as “fewer metastases”. For the same molecule, the tumor mass entry in the data set on LNCaP tumors (CD44 null) [14], in the data set on PC3 tumors [15] and in the data set on B16F1 tumors [16] was “less tumor mass” throughout. Moreover, the number of metastases entry in the data set on PC3 tumors [15] and in the data set on B16F1 tumors [16] was “fewer metastases” each time. Also, the “% INHIBITION of cell proliferation” value in data set [20] (CIS at 0.1 μg/ml alone (saline instead of HA)) is listed as 2%.

On to `O=c1[nH]cc(F)c(=O)[nH]1` [5-FU, 5-fluorouracil], for which, in the data set on LNCaP tumors (CD44 null) [14], the number of metastasis result is listed as “fewer metastases” and the tumor mass result is “less tumor mass”. Also, the inhibition at 10 µg/mL in data set [21] was found to be 18%. In the data set on PC3 tumors [15], the number of metastases result is listed as “fewer metastases” and the tumor mass result is “less tumor mass”. The inhibition at 1 µg/mL in data set [20] (Homo sapiens, 5-FU at 1.0 μg/ml alone (saline instead of HA)) worked out at 14%. Further, in the data set on B16F1 tumors [16], the number of metastases result is “fewer metastases” and the tumor mass result was “less tumor mass”.

For the molecule “(G1T)13G: synthetic 27 base oligonucleotide (GTGTGTGTGTGTGTGTGTGTGTGTGTG; listed as DNA, chemistry not given here)”, the “% INHIBITION of cell proliferation” value in data set [19] is on record as 44%.
